Assay results published in patent US20250120967A1, “TYROSINE KINASES INHIBITORS AND USES THEREOF” (GREAT NOVEL THERAPEUTICS BIOTECH & MEDICALS CORPORATION, priority 2023, published 2025).

Columns and labels:
Assay in all cases: NCI-60 screen (SRB)
Type in all cases: cell-based
EKVX = conditions: Homo sapiens, Non-Small Cell Lung Cancer
Protocol: (§1) The human tumor cell lines of the cancer screening panel are grown in RPMI 1640 medium containing 5% fetal bovine serum and 2 mM L-glutamine. For a typical screening experiment, cells are inoculated into 96 well microtiter plates in 100 μL at plating densities ranging from 5,000 to 40,000 cells/well depending on the doubling time of individual cell lines. After cell inoculation, the microtiter plates are incubated at 37° C., 5% CO2, 95% air and 100% relative humidity for 24 h prior to addition of experimental drugs. After 24 h, two plates of each cell line are fixed in situ with TCA, to represent a measurement of the cell population for each cell line at the time of drug addition (Tz). Experimental drugs are solubilized in dimethyl sulfoxide at 400-fold the desired final maximum test concentration and stored frozen prior to use. At the time of drug addition, an aliquot of frozen concentrate is thawed and diluted to twice the desired final maximum test concentration with complete medium containing 50 µg/ml gentamicin. An additional four, 10-fold or M log serial dilutions are made to provide a total of five drug concentrations plus control. Aliquots of 100 μl of these different drug dilutions are added to the appropriate microtiter wells already containing 100 μl of medium, resulting in the required final drug concentrations. Following drug addition, the plates are incubated for an additional 48 h at 37° C., 5% CO2, 95% air, and 100% relative humidity. For adherent cells, the assay is terminated by the addition of cold TCA. Cells are fixed in situ by the gentle addition of 50 μl of cold 50% (w/v) TCA (final concentration, 10% TCA) and incubated for 60 minutes at 4° C. The supernatant is discarded, and the plates are washed five times with tap water and air dried. Sulforhodamine B (SRB) solution (100 l) at 0.4% (w/v) in 1% acetic acid is added to each well, and plates are incubated for 10 minutes at room temperature. After staining, unbound dye is removed by washing five times with 1% acetic acid and the plates are air dried. Bound stain is subsequently solubilized with 10 mM trizma base, and the absorbance is read on an automated plate reader at a wavelength of 515 nm. For suspension cells, the methodology is the same except that the assay is terminated by fixing settled cells at the bottom of the wells by gently adding 50 μl of 80% TCA (final concentration, 16% TCA).

K-562 = conditions: Homo sapiens, K562; K-562, Leukemia
Protocol: as §1

NCI-H226 = conditions: Homo sapiens; NCI-H226, Non-Small Cell Lung Cancer
Protocol: as §1

DU-145 = conditions: Homo sapiens; DU-145, Prostate Cancer
Protocol: as §1

SK-OV-3 = conditions: Homo sapiens; SK-OV-3, Ovarian Cancer
Protocol: as §1

MCF7 = conditions: Homo sapiens; MCF7, Breast Cancer
Protocol: as §1

LOX IMVI = conditions: Homo sapiens, Melanoma
Protocol: as §1

NCI-H322M = conditions: Homo sapiens, Non-Small Cell Lung Cancer
Protocol: as §1

OVCAR-4 = conditions: Homo sapiens; OVCAR-4, Ovarian Cancer
Protocol: as §1

HOP-62 = conditions: Homo sapiens; HOP-62, Non-Small Cell Lung Cancer
Protocol: as §1

OVCAR-5 = conditions: Homo sapiens; OVCAR-5, Ovarian Cancer
Protocol: as §1

SF-268 = conditions: Homo sapiens; SF-268, CNS Cancer
Protocol: as §1

CAKI-1 = conditions: Homo sapiens; CAKI-1, Renal Cancer
Protocol: as §1

UACC-257 = conditions: Homo sapiens; UACC-257, Melanoma
Protocol: as §1

TK-10 = conditions: Homo sapiens; TK-10, Renal Cancer
Protocol: as §1

SF-539 = conditions: Homo sapiens; SF-539, CNS Cancer
Protocol: as §1

HT29 = conditions: Homo sapiens, HT-29; HT29, Colon Cancer
Protocol: as §1

NCI-H23 = conditions: Homo sapiens; NCI-H23, Non-Small Cell Lung Cancer
Protocol: as §1

OVCAR-8 = conditions: Homo sapiens; OVCAR-8, Ovarian Cancer
Protocol: as §1

U251 = conditions: Homo sapiens, U-251; U251, CNS Cancer
Protocol: as §1

HCC-2998 = conditions: Homo sapiens; HCC-2998, Colon Cancer
Protocol: as §1

786-0 = conditions: Homo sapiens; 786-0, Renal Cancer
Protocol: as §1

NCI-H522 = conditions: Homo sapiens; NCI-H522, Non-Small Cell Lung Cancer
Protocol: as §1

NCI/ADR-RES = conditions: Homo sapiens, Ovarian Cancer
Protocol: as §1

A498 = conditions: Homo sapiens; A498, Renal Cancer
Protocol: as §1

A549/ATCC = conditions: Homo sapiens, Non-Small Cell Lung Cancer
Protocol: as §1

CCRF-CEM = conditions: Homo sapiens, Leukemia
Protocol: as §1

HL-60(TB) = conditions: Homo sapiens, Leukemia
Protocol: as §1

IGROV1 = conditions: Homo sapiens, IGROV-1; IGROV1, Ovarian Cancer
Protocol: as §1

SMILES | GI50 (EKVX) [nM] | GI50 (K-562) [nM] | GI50 (NCI-H226) [nM] | GI50 (DU-145) [nM] | GI50 (SK-OV-3) [nM] | GI50 (MCF7) [nM] | GI50 (LOX IMVI) [nM] | GI50 (NCI-H322M) [nM] | GI50 (OVCAR-4) [nM] | GI50 (HOP-62) [nM] | GI50 (OVCAR-5) [nM] | GI50 (SF-268) [µM] | GI50 (CAKI-1) [nM] | GI50 (UACC-257) [nM] | GI50 (TK-10) [nM] | GI50 (SF-539) [nM] | GI50 (HT29) [nM] | GI50 (NCI-H23) [nM] | GI50 (OVCAR-8) [µM] | GI50 (U251) [nM] | also measured
COc1cc2nccc(Oc3ccc(NC(=O)C4(C(=O)Nc5ccc(F)cc5)CC4)cc3F)c2cc1Oc1ccc(N)cc1F [Cbo-23] | 389 | 130 | 276 | 429 | 464 | 294 | 306 | 444 | 2580 | 1200 | 389 | 1.35 | 192 | 367 | 224 | 179 | 2150 | 339 | 2.06 | 2380 | GI50 (HCC-2998): 2280 nM; GI50 (786-0): 860 nM; GI50 (NCI-H522): 330 nM; GI50 (NCI/ADR-RES): 2.04 µM; GI50 (A498): 0.459 µM; GI50 (A549/ATCC): 325 nM; GI50 (CCRF-CEM): 553 nM; GI50 (HL-60(TB)): 596 nM; GI50 (IGROV1): 264 nM
COc1cc2nccc(Oc3ccc(NC(=O)C4(NC(=O)c5ccc(F)cc5)CC4)cc3F)c2cc1Oc1ccc(N)cc1F [Cbo-10] | 488 | 1740 | 5290 | 1700 | 302 | 771 | 1780 | 518 | > 100000 | 3480 | 644 | > 100 | 276 | 1720 | 455 | > 100000 | 413 | 1040 | > 100 | > 100000 | GI50 (HCC-2998): 6040 nM; GI50 (786-0): > 100000 nM; GI50 (NCI-H522): 450 nM; GI50 (NCI/ADR-RES): > 100 µM; GI50 (A498): > 100 µM; GI50 (A549/ATCC): 483 nM; GI50 (CCRF-CEM): 436 nM; GI50 (HL-60(TB)): 521 nM; GI50 (IGROV1): 714 nM
COc1cc2nccc(Oc3ccc(NC(=O)C4(NC(=O)c5ccc(F)cc5)CC4)cc3F)c2cc1OC [Cbo-02, N-(1-((4-((6,7-diMethoxyquinolin-4-yl)oxy)-3-fluorophenyl)carbamoyl)cyclopropyl)-4-fluorobenzamide] | 1030 | 3050 | 1580 | 3360 | 2270 | 3260 | 1990 | 3940 | 2380 | 1820 | 1910 | 4.17 | 1540 | 2830 | 1830 | 1690 | 1820 | 2060 | 3.03 | 2880 | GI50 (HCC-2998): 2500 nM; GI50 (786-0): 1980 nM; GI50 (NCI-H522): 2070 nM; GI50 (NCI/ADR-RES): 4.9 µM; GI50 (A498): 3.28 µM; GI50 (A549/ATCC): 3270 nM; GI50 (CCRF-CEM): 2240 nM; GI50 (HL-60(TB)): 2200 nM; GI50 (IGROV1): 4480 nM
